The results in this text go back to ChEMBL document CHEMBL4145560, “Conformationally Constrained Cinnolinone Nucleoside Analogues as Siderophore Biosynthesis Inhibitors for Tuberculosis” (ACS Med Chem Lett, 2018).

The source made the active and inactive calls. The calls are words filed in the database; no cut-off is given here.

This experiment concerns Mycobacterium tuberculosis. As to the kind of experiment: Antimycobacterial activity against Mycobacterium tuberculosis overexpressing Rv0560c-OE in iron-free GAST medium at 0.04 to 10 uM after 8 days by two fold serial dilution method. The format is functional, organism-based.

In the case of `Nc1ncnc2c1ncn2[C@@H]1O[C@H](COS(=O)(=O)NC(=O)c2ccccc2O)[C@@H](O)[C@H]1O`, the outcome was Active.
